Assay results taken from patent US12599613B2, “Composition comprising dutasteride” (Chong Kun Dang Pharmaceutical Corp., priority 2018, dated 2026).

Assay: Dissolution rate of pharmaceutical composition in vitro (Korean Pharmacopoeia Method I, basket)
Assay type: physicochemical
Conditions: 56 mg dutasteride, 900 mL 1% w/v sodium dodecyl sulfate, 37° C., 100 rpm
Procedure: A dissolution rate of the inventive compositions in vitro was identified through the following experiment. Example 32 was filled into a disposable syringe in such an amount that corresponds to 56 mg of dutasteride and then injected into a dissolution medium, and Comparative Example 1 was directly put into a rotating basket in such an amount that corresponds to 56 mg of dutasteride. This experiment was performed according to the dissolution test method I in the 10th revision of the Korean Pharmacopocia and the conditions for dissolution are as follows.
<Conditions for Dissolution of Pharmaceutical Composition>
• Dissolution method: Method I of the Korean Pharmacopoeia (Appratus I—Basket) • Dissolution medium: 900 mL of solution containing 1% w/v sodium dodecyl sulfate • Dissolution temperature: 37±0.5° C. • Rotation speed: 100 rpm • Test hour: 1, 3, 6, 12 and 24 hours
With regard to a concentration of dutasteride in a dissolution sample, a dissolution rate for 24 hours was analyzed with HPLC under the condition of Experimental Example 1 and the results thereof were shown in FIG. 2.

Question: Which “state of dutasteride in the dissolution medium (dissolved / precipitated)” value does the source give for `C[C@]12C=CC(=O)N[C@@H]1CC[C@@H]1[C@@H]2CC[C@]2(C)[C@@H](C(=O)Nc3cc(C(F)(F)F)ccc3C(F)(F)F)CC[C@@H]12` [Comparative Example 1, dutasteride] here?
Answer: The value was “a part of the drug only was dissolved into the dissolution medium”.

Question: And the “dissolution rate with an elapse of time” value (24 hours)?
Answer: Its value is “hardly increased with an elapse of time from one hour after”.
